Entries after “also recorded” stand apart in the source; their conditions may differ. Like-named read-outs stand apart in the source and are kept apart here.
What was measured:
[1] = test system: DU145 cells; test: WST-1 cell viability assay; format: cell-based
Procedure: In order to test the activity of MMSET inhibitors on cell viability, a WST-1 cell viability assay (Roche) was performed. The aggressive prostate cell line DU145 was treated with different doses of small molecules dissolved in DMSO for 96 hours before performing the WST-1 assay according to manufacturer's protocol. Each experiment was performed 8 times and absorbance was measured at 450 nm.

[2] = test system: DU145 cells; test: Basement membrane matrix invasion assay; format: cell-based; settings: 48 hours
Procedure: DU145 cells were used for invasion assays. In some experiments, MMSET knockdown was performed by transfecting cells with two different MMSET-specific siRNAs. Forty-eight hours post-transfection, cells were seeded onto the basement membrane matrix (EC matrix, Chemicon, Temecula, Calif.) present in the insert of a 24-well culture plate. In some experiments, MMSET was inhibited using a small molecule inhibitor (MCTP39). Fetal bovine serum was added to the lower chamber as a chemoattractant with or without 2 doses of small molecule inhibitors. After 48 hours, the non-invading cells and EC matrix were gently removed with a cotton swab. Invasive cells located on the lower side of the chamber were measured colorimetrically by treating with 150 μl of 10% acetic acid and the absorbance measured at 560 nm using a spectrophotometer.

[3] = test system: histone H3 methylation in DU145 cells; test: Immunoblot analyses of histone H3 methylation modifications; format: cell-based
Procedure: DU145 cells were incubated with multiple doses of small molecule inhibitors for 96 hours or were subjected to siRNA-mediated MMSET knockdown as described herein (e.g., using sh1 GGUCCAAAGUGUCGGGUUA or sh2 GUCAGUGGAGGAGCGGAA). Cells were homogenized in NP40 lysis buffer (50 mM Tris-HCl, 1% NP40, pH 7.4, Sigma, St. Louis, Mo.) with Complete proteinase inhibitor mixture (Roche, Indianapolis, Ind.). Ten micrograms of each protein extract were boiled in sample buffer, separated by SDS-PAGE, and transferred onto Polyvinylidene Difluoride membrane (GE Healthcare). The membrane was incubated for one hour in blocking buffer and incubated overnight at 4° C. with the following antibodies: anti-mono, di, and trimethylated H3-27, anti-di and trimethylated H3-k36, and anti-trimethylated H3-K9. Following a wash with TBS-T, the blot was incubated with horseradish peroxidase-conjugated secondary antibody. Signals were visualized by enhanced chemiluminescence as described by the manufacturer (GE Healthcare). The blots were re-probed with anti-H3 and β-actin for confirmation of equal loading.

[4] = test system: xenograft tumors; test: Xenograft tumors; settings: in vivo
[5] = test system: translocation positive MM cell lines; test: Specificity in MM cell lines; format: cell-based
[6] = test system: multiple cancers; test: Cell viability (FIGS. 11-26); format: cell-based

IC50 ([1]; Homo sapiens, DU-145, 96 hours, WST-1): < 3000 nM
Structure (SMILES): NNc1nc2ccccc2nc1S [MCTP39, 3-hydrazinylquinoxaline-2-thiol]
proliferation of DU145 cells [1]: affected proliferation and invasion of DU145 cells even at very low concentration
invasion of DU145 cells [2]: affected proliferation and invasion of DU145 cells even at very low concentration
H3K27 trimethylation [3]: dose-dependent decreased
H3K36 dimethylation [3]: dose-dependent decreased
H3K36 trimethylation [3]: dose-dependent decreased
H3K27 dimethylation ([3]; 96 hours): dose-dependent decreased
H3K27 trimethylation ([3]; listed as N39): reduced
H3K36 dimethylation ([3]; listed as N39): reduced
H3K36 trimethylation ([3]; listed as N39): reduced
tumor size / tumor volume in xenograft tumors [4]: decreased; also recorded: reduces tumor volume
specificity toward translocation positive MM cell lines [5]: shows specificity toward translocation positive MM cell lines
cell viability [6]: decreased

Source: patent publication US8697407B2, “Compositions and methods for inhibiting MMSET” (The Regents of The University of Michigan, priority 2010, dated 2014)
